# Data as given in article PMC7397269, “Synthesis and Evaluation of New Coumarin Derivatives as Antioxidant, Antimicrobial, and Anti-Inflammatory Agents” (Molecules, 2020).
# Like-named read-outs stand apart in the source and are kept apart here.
# Assays:
# [1] = DPPH antioxidant assay (radical scavenging); assay type: biochemical; settings: mean ± SD (n = 3)
# Description: The antioxidant effects of the synthesised compounds were assessed using the 2,2-diphenyl-1-picrylhydrazyl (DPPH) antioxidant assay. Table 1 summarises the antioxidant effects of the test samples and ascorbic acid except for compound 5b because it was produced in poor yield.
# The radical scavenging activity of the synthesised compounds was measured using the DPPH microplate-based method. The absorbance was measured using a microplate/cuvette reader (Spectramax M5, Molecular Devices, San Jose, CA, USA). Reference standard ascorbic acid was utilised as the positive control for this assay. Test samples were prepared at a starting concentration of 200 μg/mL after mixing with 100 μL of 0.2 mM DPPH methanolic solution. […] Samples were incubated with DPPH in the dark for 30 min at room temperature (25 °C). The methanolic DPPH solution was prepared daily and stored in a flask covered with aluminium foil. DPPH radicals have an absorption maximum (λmax) at 515 nm, at which the absorbance values were measured and converted into a percentage of antioxidant activity.
# The methanolic DPPH solution without antioxidants was used as a control, and samples in methanol alone served as a background control. IC50 was determined using GraphPad Prism 7 (GraphPad Software Inc., San Diego, CA, USA). The percent inhibition was calculated using the following Equation (1):(1) % Inhibition=100−Sample Absorbance −Sample background Absorbance/DPPH only Absorbance×100
# The assay was carried out in triplicate and performed as much as possible in an area protected against light. The data points are presented as the mean ± standard deviation (SD, n = 3).
# [2] = system: Staphylococcus aureus ATCC 29213; assay: Agar well diffusion, S. aureus; assay type: cell-based; settings: ATCC29213, 100 μL of 10 mg/mL in DMSO, read-out: diameter of inhibition zone, SA
# Source text: (§1) The new molecules were individually tested for their antimicrobial activity in vitro against standard bacteria strains from the American Type Culture Collection (ATCC), namely, Staphylococcus aureus ATCC 29213, Bacillus subtilis ATCC 6633, Bacillus megaterium ATCC 9885 (Gram-positive), Escherichia coli ATCC 2592, and Pseudomonas aeruginosa ATCC 27,953 (Gram-negative). The compounds were also microbiologically tested against locally isolated Saccharomyces cerevisiae (yeast) and the standard Agricultural Research Service Culture Collection (NRRL) strain of the yeast-like pathogenic fungus Candida albicans NRRL Y-477. Primary screening was conducted using the agar well diffusion method using nutrient agar (NA) medium and Sabourand dextrose agar (SDA) medium for the tested pathological bacteria and yeast, respectively. […].
# (§2) Antimicrobial tests were conducted via the agar well diffusion method using 100 μL of suspension containing 1 × 10^8 CFU/mL pathological tested bacteria and 1 × 10^6 CFU/mL yeast spread on NA and SDA, respectively. After the media cooled and solidified, wells (10 mm in diameter) were made in the solidified agar and loaded with 100 μL of the tested compound solution prepared by dissolving 10 mg of the chemical compound in 1 mL dimethyl sulfoxide (DMSO). The inoculated plates were then incubated for 24 h at 37 °C for bacteria and yeast growth. DMSO served as negative control. Ciprofloxacin (10 mg/mL) and ketoconazole (10 mg/mL) were used as standards for antibacterial and antifungal activity, respectively. After incubation, antimicrobial activity was evaluated by measuring the zone of inhibition against the test organisms and compared with that of the standard. Antimicrobial activities were expressed as the diameter of the inhibition zone (IZ) in mm. The experiment was carried out in triplicate and the average zone of inhibition was calculated.
# [3] = system: Bacillus subtilis ATCC 6633; assay: Agar well diffusion, B. subtilis; assay type: cell-based; settings: ATCC6633, 100 μL of 10 mg/mL in DMSO, read-out: diameter of inhibition zone, BS
# Source text: as §1, §2
# [4] = system: Bacillus megaterium ATCC 9885; assay: Agar well diffusion, B. megaterium; assay type: cell-based; settings: Priestia megaterium, ATCC9885, 100 μL of 10 mg/mL in DMSO, read-out: diameter of inhibition zone, BM
# Source text: as §1, §2
# [5] = system: Escherichia coli ATCC 2592; assay: Agar well diffusion, E. coli; assay type: cell-based; settings: ATCC2592, 100 μL of 10 mg/mL in DMSO, read-out: diameter of inhibition zone, EC
# Source text: as §1, §2
# [6] = system: Pseudomonas aeruginosa ATCC 27,953; assay: Agar well diffusion, P. aeruginosa; assay type: cell-based; settings: ATCC27, 100 μL of 10 mg/mL in DMSO, read-out: diameter of inhibition zone, PA
# Source text: as §1, §2
# [7] = system: Saccharomyces cerevisiae local isolate; assay: Agar well diffusion, S. cerevisiae; assay type: cell-based; settings: read-out: diameter of inhibition zone, SC
# Source text: as §1, §2
# [8] = system: Candida albicans NRRL Y-477; assay: Agar well diffusion, C. albicans; assay type: cell-based; settings: NRRLY477, 100 μL of 10 mg/mL in DMSO, read-out: diameter of inhibition zone, CA
# Source text: as §1, §2
# [9] = system: Saccharomyces cerevisiae local isolate; assay: MIC, two-fold serial dilution, S. cerevisiae; assay type: cell-based; settings: read-out: Minimum inhibitory concentration, SC
# Source text: as §1
# (§3) The bacteriostatic activity of the active compounds (having IZ > 16 mm) was then evaluated using the two-fold serial dilution technique. Two-fold serial dilutions of the tested compounds solutions were prepared using the proper nutrient broth to reach final concentrations of 1000, 500, 250, and 125 μg/mL. The tubes were then inoculated with the test microorganisms grown in their suitable broth at 37 °C for 24 h (1 × 10^8 CFU/mL for bacteria and 1 × 10^6 CFU/mL of yeast), 0.1 mL of the above inoculum was administered per 5 mL, and the tubes were incubated at 37 °C for 24 h. The lowest concentration showing no growth was taken as the MIC.
# [10] = system: Candida albicans NRRL Y-477; assay: MIC, two-fold serial dilution, C. albicans; assay type: cell-based; settings: NRRLY477, read-out: Minimum inhibitory concentration, CA
# Source text: as §1, §3
# [11] = system: trypsin; assay: Proteinase-inhibitory activity; assay type: biochemical; settings: 250 µg/mL; mean ± SD (n = 3)
# Description: The newly synthesised compounds were individually tested for their in vitro anti-inflammatory activity against proteinase enzyme. […] This test was performed at the Pharmacology Department, Medical Research Division, National Research Centre, Cairo, Egypt. Furthermore, compounds 2–8 were evaluated for their COX1/COX2 inhibitory activities.
# The test was performed according to El-Serwy et al. with minor modifications. The reaction mixture (2 mL) contained 0.06 mg trypsin, 20 mM Tris HCl buffer (pH 7.4), and 1 mL test sample (250 µg/mL for each compound). After incubating for 5 min, 1 mL of 0.8% (w/v) casein was added. The mixture was incubated for an additional 20 min. The reaction was arrested by adding 1 mL of 10% perchloric acid. The cloudy suspension was centrifuged, and the absorbance of the supernatant was read at 280 nm. Reference standard aspirin was used as the positive control. The experiment was performed in triplicate. The percent inhibition of protein denaturation was calculated using the following Equation (2):(2) % Inhibition=100−A control −A test/A control×100 where Acontrol and Atest represent the absorbance of the control reaction without and with the sample, respectively.
# [12] = target: T1, COX-1 (Homo sapiens, UniProt P23219); assay: COX-1 inhibition, Cayman assay kit; assay type: biochemical; settings: mean of two determinations
# T1 construct: purchased Cayman Chemical 701070
# [13] = target: T2, COX-2 (Homo sapiens, UniProt P35354); assay: COX-2 inhibition, Cayman assay kit; assay type: biochemical; settings: for IC50: mean of two determinations; for SI, selectivity index (COX-1/COX-2): ratio of COX-1/COX-2 IC50
# T2 construct: purchased Cayman Chemical 701080
# T2 sequence (P35354 18-604): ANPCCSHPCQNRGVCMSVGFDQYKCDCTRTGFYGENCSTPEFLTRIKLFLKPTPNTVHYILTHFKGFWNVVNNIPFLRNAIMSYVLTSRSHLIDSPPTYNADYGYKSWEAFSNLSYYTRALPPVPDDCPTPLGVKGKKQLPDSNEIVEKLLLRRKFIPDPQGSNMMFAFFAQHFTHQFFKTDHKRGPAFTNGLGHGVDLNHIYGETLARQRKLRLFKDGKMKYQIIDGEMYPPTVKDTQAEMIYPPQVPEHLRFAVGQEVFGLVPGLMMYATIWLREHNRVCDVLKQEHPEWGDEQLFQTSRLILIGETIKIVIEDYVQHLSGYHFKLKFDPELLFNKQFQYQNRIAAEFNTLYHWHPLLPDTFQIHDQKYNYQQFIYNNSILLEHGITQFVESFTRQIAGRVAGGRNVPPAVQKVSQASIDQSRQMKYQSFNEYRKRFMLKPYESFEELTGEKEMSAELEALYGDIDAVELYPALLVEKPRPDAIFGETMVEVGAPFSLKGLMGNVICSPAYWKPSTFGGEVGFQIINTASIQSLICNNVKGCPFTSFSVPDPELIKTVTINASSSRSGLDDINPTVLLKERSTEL
# [14] = system: Bacillus subtilis ATCC 6633; assay: MIC, two-fold serial dilution, B. subtilis; assay type: cell-based; settings: ATCC6633, read-out: Minimum inhibitory concentration, BS
# Source text: as §1, §3
# [15] = system: Bacillus megaterium ATCC 9885; assay: MIC, two-fold serial dilution, B. megaterium; assay type: cell-based; settings: Priestia megaterium, ATCC9885, read-out: Minimum inhibitory concentration, BM
# Source text: as §1, §3
# [16] = system: Staphylococcus aureus ATCC 29213; assay: MIC, two-fold serial dilution, S. aureus; assay type: cell-based; settings: ATCC29213, read-out: Minimum inhibitory concentration, SA
# Source text: as §1, §3
# [17] = system: Escherichia coli ATCC 2592; assay: MIC, two-fold serial dilution, E. coli; assay type: cell-based; settings: ATCC2592, read-out: Minimum inhibitory concentration, EC
# Source text: as §1, §3
# [18] = system: Pseudomonas aeruginosa ATCC 27,953; assay: MIC, two-fold serial dilution, P. aeruginosa; assay type: cell-based; settings: ATCC27, read-out: Minimum inhibitory concentration, PA
# Source text: as §1, §3
# [19] = well diffusion, 100 μL of 10 mg/mL in DMSO, S. cerevisiae
# T1 sequence (P23219 24-599): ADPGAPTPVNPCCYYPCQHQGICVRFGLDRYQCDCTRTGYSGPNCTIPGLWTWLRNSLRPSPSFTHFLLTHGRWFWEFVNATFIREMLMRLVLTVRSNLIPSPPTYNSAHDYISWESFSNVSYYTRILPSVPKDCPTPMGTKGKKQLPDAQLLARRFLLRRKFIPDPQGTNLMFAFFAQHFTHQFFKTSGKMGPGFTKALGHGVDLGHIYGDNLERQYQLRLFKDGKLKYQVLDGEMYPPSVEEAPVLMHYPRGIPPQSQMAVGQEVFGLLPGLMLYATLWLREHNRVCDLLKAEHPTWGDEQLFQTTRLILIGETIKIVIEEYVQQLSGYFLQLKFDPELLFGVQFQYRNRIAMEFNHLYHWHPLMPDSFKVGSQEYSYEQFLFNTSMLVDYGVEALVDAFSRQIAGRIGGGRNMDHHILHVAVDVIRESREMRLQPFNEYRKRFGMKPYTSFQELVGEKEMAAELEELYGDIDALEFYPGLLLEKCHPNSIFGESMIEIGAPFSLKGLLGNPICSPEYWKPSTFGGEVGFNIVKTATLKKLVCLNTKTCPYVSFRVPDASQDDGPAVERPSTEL
MIC [14],MIC [15],Compound,IC50 [1],zone of inhibition at 10000 µg/mL [2],zone of inhibition at 10000 µg/mL [3],zone of inhibition at 10000 µg/mL [4],zone of inhibition at 10000 µg/mL [5],zone of inhibition at 10000 µg/mL [6],zone of inhibition at 10000 µg/mL [7],zone of inhibition at 10000 µg/mL [8],MIC [9],MIC [10],% Inhibition (proteinase) [11],IC50 [12],IC50 [13],"SI, selectivity index (COX-1/COX-2) [13]",melting point,"zone of inhibition at 10000 µg/mL [7, 19]",MIC [16],further results
–,–,"Cc1ccc2oc(=O)c3c(c2c1)OC(N)=C(C(N)=O)C3c1ccco1 (racemic) [3b, (±)-2-Amino-4-(furan-2-yl)-9-methyl-5-oxo-4H,5H-pyrano[3,2-c]chromene-3-carboxamide]",48.38 ± 4.616 µg/mL,16 mm,< 15 mm,< 15 mm,16 mm,16 mm,17 mm,18 mm,1000 µg/mL,1000 µg/mL,49.28 ± 10.93%,7.73 µM,2.45 µM,3.16,202 to 204 °C,–,–,–
1000 µg/mL,1000 µg/mL,"O=C(/C=C/c1ccc([N+](=O)[O-])cc1)c1ccc(NS(=O)(=O)c2c(O)c3cc(Cl)ccc3oc2=O)cc1 [9a, (E)-6-Chloro-4-hydroxy-N-(4-(3-(4-nitrophenyl)acryloyl)phenyl)-2-oxo-2H-chromene-3-sulfonamide]",— ((—): inactive (IC50 > 200 μg/mL)),16 mm,18 mm,18 mm,< 15 mm,< 15 mm,–,< 15 mm,–,–,62.14 ± 4.87%,–,–,–,205 to 207 °C,< 15 mm,–,–
–,–,"Cc1ccc2oc(=O)c3c(c2c1)OC(/N=C/c1ccc(Cl)cc1Cl)=C(C#N)C3c1ccc([N+](=O)[O-])cc1 (racemic) [5e, (±)-2-((2,4-dichlorobenzylidene)amino)-9-methyl-4-(4-nitrophenyl)-5-oxo-4H,5H-pyrano[3,2-c]chromene-3-carbonitrile]",— ((—): inactive (IC50 > 200 μg/mL)),16 mm,16 mm,16 mm,15 mm,15 mm,22 mm,20 mm,500 µg/mL,500 µg/mL,45.78 ± 1.62%,20.8 µM,8.27 µM,2.52,236 to 238 °C,–,–,–
–,–,"COc1cc(/C=N/C2=C(C#N)C(c3ccco3)c3c(c4cc(C)ccc4oc3=O)O2)cc(OC)c1OC (racemic) [5d, (±)-4-(furan-2-yl)-9-methyl-5-oxo-2-((3,4,5-trimethoxybenzylidene)amino)-4H,5H-pyrano[3,2-c]chromene-3-carbonitrile]",82.92 ± 3.300 µg/mL,18 mm,< 15 mm,< 15 mm,< 15 mm,< 15 mm,19 mm,19 mm,1000 µg/mL,1000 µg/mL,43.4 ± 1.52%,27.2 µM,16 µM,1.7,248 to 250 °C,–,1000 µg/mL,–
125 µg/mL,125 µg/mL,"O=C(O)c1cn(C2CC2)c2cc(N3CCNCC3)c(F)cc2c1=O [Ciprofloxacin, reference compound]",–,28 mm,30 mm,30 mm,30 mm,30 mm,–,< 15 mm,–,–,–,–,–,–,–,< 15 mm,125 µg/mL,MIC [17]: 125 µg/mL; MIC [18]: 125 µg/mL
